According to ChEMBL document CHEMBL1201862, “PubChem BioAssay data set” (2004):
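Compound exposure: 48 hours, 5 concentrations, 96-well plates. GI50 = concentration required for 50% inhibition of growth.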 Calls of active or inactive are those of the source. Cut-off read from the data, not from the text of the source: active = GI50 up to about 1.1 µM and inactive = higher.

Key:
Assay in all cases: NCI anticancer screen, dose series, 48 h
786-0 = tested on: 786-0
A498 = tested on: A498
A549 = tested on: A549
ACHN = tested on: ACHN
CAKI-1 = tested on: CAKI-1
CCRF-CEM = tested on: CCRF-CEM
COLO 205 = tested on: COLO 205
DU-145 = tested on: DU-145
EKVX = tested on: EKVX
HCC 2998 = tested on: HCC 2998
HCT-116 = tested on: HCT-116
HCT-15 = tested on: HCT-15
HL-60 = tested on: HL-60
HOP-62 = tested on: HOP-62
HOP-92 = tested on: HOP-92
HT-29 = tested on: HT-29
Hs-578T = tested on: Hs-578T
IGROV-1 = tested on: IGROV-1
K562 = tested on: K562
KM12 = tested on: KM12
LOX IMVI = tested on: LOX IMVI
M14 = tested on: M14
MCF7 = tested on: MCF7
MDA-MB-231 = tested on: MDA-MB-231
MDA-MB-435 = tested on: MDA-MB-435
MDA-N = tested on: MDA-N
MOLT-4 = tested on: MOLT-4
Malme-3M = tested on: Malme-3M
NCI-H226 = tested on: NCI-H226
NCI-H23 = tested on: NCI-H23
NCI-H460 = tested on: NCI-H460
NCI-H522 = tested on: NCI-H522
NCI/ADR-RES = tested on: NCI/ADR-RES
OVCAR-3 = tested on: OVCAR-3
OVCAR-4 = tested on: OVCAR-4
OVCAR-5 = tested on: OVCAR-5
OVCAR-8 = tested on: OVCAR-8
PC-3 = tested on: PC-3
RPMI-8226 = tested on: RPMI-8226
RXF 393 = tested on: RXF 393
SF-268 = tested on: SF-268
SF-295 = tested on: SF-295
SF-539 = tested on: SF-539
SK-MEL-28 = tested on: SK-MEL-28
SK-MEL-5 = tested on: SK-MEL-5
SK-OV-3 = tested on: SK-OV-3
SN12C = tested on: SN12C
SNB-19 = tested on: SNB-19
SNB-75 = tested on: SNB-75
SR = tested on: SR
SW-620 = tested on: SW-620
T47D = tested on: T47D
TK-10 = tested on: TK-10
U-251 = tested on: U-251
UACC-257 = tested on: UACC-257
UACC-62 = tested on: UACC-62
UO-31 = tested on: UO-31
BT-549 = tested on: BT-549
SK-MEL-2 = tested on: SK-MEL-2

CCCCCCCCCc1c(Cl)nc(Cl)nc1Cl
GI50 (786-0): 13.9 µM (inactive)
GI50 (A498): 19.6 µM (inactive)
GI50 (A549): 20.9 µM (inactive)
GI50 (ACHN): 19.5 µM (inactive)
GI50 (CAKI-1): 4.78 µM (inactive)
GI50 (CCRF-CEM): 2.17 µM (inactive)
GI50 (COLO 205): 19.5 µM (inactive)
GI50 (DU-145): 17.3 µM (inactive)
GI50 (EKVX): 22.7 µM (inactive)
GI50 (HCC 2998): 3.74 µM (inactive)
GI50 (HCT-116): 14.5 µM (inactive)
GI50 (HCT-15): 12.3 µM
GI50 (HL-60): 5.05 µM (inactive)
GI50 (HOP-62): 22.5 µM (inactive)
GI50 (HOP-92): 15.3 µM (inactive)
GI50 (HT-29): 17.5 µM (inactive)
GI50 (Hs-578T): 29.2 µM (inactive)
GI50 (IGROV-1): 13.2 µM (inactive)
GI50 (K562): 6.68 µM (inactive)
GI50 (KM12): 32.7 µM (inactive)
GI50 (LOX IMVI): 1.95 µM (inactive)
GI50 (M14): 3.48 µM (inactive)
GI50 (MCF7): 18.4 µM (inactive)
GI50 (MDA-MB-231): 12.3 µM (inactive)
GI50 (MDA-MB-435): 13.5 µM (inactive)
GI50 (MDA-N): 14.7 µM (inactive)
GI50 (MOLT-4): 1.96 µM (inactive)
GI50 (Malme-3M): 10.8 µM (inactive)
GI50 (NCI-H226): 5.62 µM (inactive)
GI50 (NCI-H23): 9.62 µM (inactive)
GI50 (NCI-H460): 18.2 µM (inactive)
GI50 (NCI-H522): 3.67 µM (inactive)
GI50 (NCI/ADR-RES): 18.8 µM (inactive)
GI50 (OVCAR-3): 17.9 µM (inactive)
GI50 (OVCAR-4): 15 µM (inactive)
GI50 (OVCAR-5): 21 µM (inactive)
GI50 (OVCAR-8): 16.1 µM (inactive)
GI50 (PC-3): 15.7 µM (inactive)
GI50 (RPMI-8226): 14.6 µM (inactive)
GI50 (RXF 393): 14.4 µM (inactive)
GI50 (SF-268): 18.7 µM (inactive)
GI50 (SF-295): 20.7 µM (inactive)
GI50 (SF-539): 18.2 µM (inactive)
GI50 (SK-MEL-28): 19.4 µM (inactive)
GI50 (SK-MEL-5): 11.7 µM (inactive)
GI50 (SK-OV-3): 20.4 µM (inactive)
GI50 (SN12C): 12.9 µM (inactive)
GI50 (SNB-19): 16.2 µM (inactive)
GI50 (SNB-75): 15 µM (inactive)
GI50 (SR): 2.84 µM (inactive)
GI50 (SW-620): 10.1 µM (inactive)
GI50 (T47D): 10.1 µM (inactive)
GI50 (TK-10): 23 µM (inactive)
GI50 (U-251): 18.9 µM (inactive)
GI50 (UACC-257): 19.8 µM (inactive)
GI50 (UACC-62): 20 µM (inactive)
GI50 (UO-31): 18.3 µM (inactive)

CN(C)C(=S)N/N=C\C=N/NC(=S)N(C)C
GI50 (786-0): 0.209 µM (active)
GI50 (A498): 0.643 µM (active)
GI50 (A549): 0.0918 µM (active)
GI50 (ACHN): 0.238 µM (active)
GI50 (BT-549): > 100 µM (inactive)
GI50 (CAKI-1): 0.447 µM (active)
GI50 (COLO 205): 0.246 µM (active)
GI50 (DU-145): 0.155 µM (active)
GI50 (EKVX): 0.479 µM (active)
GI50 (HCT-15): 0.0843 µM
GI50 (HOP-62): 0.129 µM (active)
GI50 (HOP-92): 1.65 µM (inactive)
GI50 (HT-29): 0.0625 µM (active)
GI50 (IGROV-1): 0.47 µM (active)
GI50 (K562): 23.9 µM (inactive)
GI50 (KM12): 0.525 µM (active)
GI50 (LOX IMVI): 0.321 µM (active)
GI50 (M14): 0.139 µM (active)
GI50 (MCF7): 0.329 µM (active)
GI50 (MDA-MB-231): > 100 µM (inactive)
GI50 (MDA-MB-435): 0.953 µM (active)
GI50 (MDA-N): 3.29 µM (inactive)
GI50 (Malme-3M): 0.182 µM (active)
GI50 (NCI-H226): 0.515 µM (active)
GI50 (NCI-H23): 1.63 µM (inactive)
GI50 (NCI-H460): 0.0231 µM (active)
GI50 (NCI-H522): 0.22 µM (active)
GI50 (NCI/ADR-RES): 0.189 µM (active)
GI50 (OVCAR-3): 0.0295 µM (active)
GI50 (OVCAR-4): 0.148 µM (active)
GI50 (OVCAR-5): 31.8 µM (inactive)
GI50 (OVCAR-8): 0.175 µM (active)
GI50 (PC-3): 0.182 µM (active)
GI50 (RPMI-8226): 0.871 µM (active)
GI50 (RXF 393): 0.277 µM (active)
GI50 (SF-268): 0.112 µM (active)
GI50 (SF-295): 0.158 µM (active)
GI50 (SF-539): 6.97 µM (inactive)
GI50 (SK-MEL-28): 0.552 µM (active)
GI50 (SK-MEL-2): 0.361 µM (active)
GI50 (SK-MEL-5): 0.349 µM (active)
GI50 (SK-OV-3): 0.344 µM (active)
GI50 (SN12C): 0.286 µM (active)
GI50 (SNB-19): 0.731 µM (active)
GI50 (SNB-75): 1.75 µM (inactive)
GI50 (SW-620): 0.0569 µM (active)
GI50 (T47D): 0.384 µM (active)
GI50 (TK-10): 2.53 µM (inactive)
GI50 (U-251): 0.0614 µM (active)
GI50 (UACC-257): 2.64 µM (inactive)
GI50 (UACC-62): 0.802 µM (active)
GI50 (UO-31): 0.237 µM (active)

COc1ccc(N2C(=O)C3c4[nH]c5c(C)cccc5c4C4CCC(C(C)(C)C)CC4C3C2=O)cc1 (centres undefined)
GI50 (A498): > 10 µM (inactive)
GI50 (A549): 7 µM (inactive)
GI50 (ACHN): 5.12 µM (inactive)
GI50 (CAKI-1): > 10 µM (inactive)
GI50 (CCRF-CEM): > 10 µM (inactive)
GI50 (COLO 205): 5.97 µM (inactive)
GI50 (DU-145): > 10 µM (inactive)
GI50 (EKVX): 5.18 µM (inactive)
GI50 (HCC 2998): 2.48 µM (inactive)
GI50 (HCT-116): 5.01 µM (inactive)
GI50 (HCT-15): > 10 µM
GI50 (HL-60): 3.3 µM (inactive)
GI50 (HOP-62): > 10 µM (inactive)
GI50 (HT-29): 2.32 µM (inactive)
GI50 (Hs-578T): 8.17 µM (inactive)
GI50 (IGROV-1): > 10 µM (inactive)
GI50 (K562): 4.51 µM (inactive)
GI50 (KM12): 5.13 µM (inactive)
GI50 (LOX IMVI): 2.16 µM (inactive)
GI50 (M14): > 10 µM (inactive)
GI50 (MCF7): 3.56 µM (inactive)
GI50 (MDA-MB-231): > 10 µM (inactive)
GI50 (MDA-MB-435): > 10 µM (inactive)
GI50 (MDA-N): > 10 µM (inactive)
GI50 (MOLT-4): 3.47 µM (inactive)
GI50 (Malme-3M): > 10 µM (inactive)
GI50 (NCI-H226): > 10 µM (inactive)
GI50 (NCI-H23): 4.19 µM (inactive)
GI50 (NCI-H460): 2.83 µM (inactive)
GI50 (NCI-H522): > 10 µM (inactive)
GI50 (NCI/ADR-RES): > 10 µM (inactive)
GI50 (OVCAR-3): > 10 µM (inactive)
GI50 (OVCAR-4): > 10 µM (inactive)
GI50 (OVCAR-5): > 10 µM (inactive)
GI50 (OVCAR-8): > 10 µM (inactive)
GI50 (PC-3): 3.61 µM (inactive)
GI50 (RPMI-8226): 6 µM (inactive)
GI50 (RXF 393): 3.36 µM (inactive)
GI50 (SF-268): 5.61 µM (inactive)
GI50 (SF-295): > 10 µM (inactive)
GI50 (SF-539): 9.42 µM (inactive)
GI50 (SK-MEL-28): > 10 µM (inactive)
GI50 (SK-MEL-2): > 10 µM (inactive)
GI50 (SK-MEL-5): > 10 µM (inactive)
GI50 (SK-OV-3): > 10 µM (inactive)
GI50 (SN12C): 8.79 µM (inactive)
GI50 (SNB-19): > 10 µM (inactive)
GI50 (SNB-75): > 10 µM (inactive)
GI50 (SR): 3.44 µM (inactive)
GI50 (SW-620): 6.62 µM (inactive)
GI50 (T47D): > 10 µM (inactive)
GI50 (TK-10): 9.14 µM (inactive)
GI50 (U-251): > 10 µM (inactive)
GI50 (UACC-62): > 10 µM (inactive)
GI50 (UO-31): 2.72 µM (inactive)
